Molecules are shown by their SMILES. pEC50: −log10 of the molar value. In brackets after ≈: the same amount, converted by molar mass. Like-named read-outs stand apart in the source and are kept apart here. Starred links: 1 amine or outer side, 2 acyl side, 3 side chain; linkers in the order of their positions; H or OH if unused. Positions of bridges follow the written chain, without caps; N, C: chain ends. Non-standard residues stand in square brackets, D forms with d. Residues, ends and D or L forms follow the SMILES beside them. X5 = CC(C)CCCCCCC[C@H](CC(=O)[*:1])O[*:2]; X2 = CCCCCCC[C@H](CC(=O)[*:1])O[*:2]; Val(3-OH) = CC(C)(O)[C@H](N)C(=O)O; X1 = C/C=C(/N[*:1])C(=O)[*:2]; Dab = NCC[C@H](N)C(=O)O; Dap = NC[C@H](N)C(=O)O

In test [1] the test system is A. baumannii. Briefly: MIC, extended panel, broth micro-dilution in MHII (EUCAST/CLSI). The test is classed as cell-based. The following applies: Acinetobacter baumannii. Here is the method:
(§1) Plates were, subsequently, incubated at 37 °C in the dark, and viable colonies counted after 16 to 24 h.
(§2) To estimate MIC values (concentration range between 0.05 and 50 µg/mL), solutions of the tested compounds (100, 10 and 1 and if needed 0.1 µg/mL in MeOH) were dispensed into wells of microtiter plate(s) and the solvent was evaporated in a fume-hood. Subsequently, suspensions of pathogen cells in the appropriate medium were dispensed to the wells of microtiter plates and the growth of pathogens were observed after 16 to 20 h of incubation at 37 °C in the dark. Positive controls were the respective pathogen cells suspended in untreated sterile media without addition of compounds(s) and negative controls were the media only. MIC values were defined as the lowest concentration of each compound with no visible growth of pathogen. All MIC tests were performed in triplicate and […]
(§3) MIC determination for compound 2 against an extended panel of bacterial strains.
(§4) Compound 2 was evaluated against a panel of Gram-negative bacteria (Hughes strain collection), including: A. baumannii ATCC 19606, wild-type; BM4454, multidrug-resistant clinical isolate; BM4652, efflux-defective derivative of BM4454; CH9622, colistin-resistant clinical isolate; E. coli ATCC 25922, wild-type; CH3130, efflux-defective ΔtolC mutant isogenic to ATCC 25922; D22, a drug-hypersensitive lpxC mutant of E. coli; CH3491, multidrug-resistant clinical isolate; CH9623 and CH9624, colistin-resistant clinical isolates carrying mcr-1; K. pneumoniae ATCC 13833, wild-type; […]
(§5) clinical isolate; CH9625 and CH9626, colistin-resistant clinical isolates; P. aeruginosa PAO1, wild-type; PAO750, efflux-defective mutant isogenic to PAO1. The in vitro antimicrobial activity of each compound was determined by measuring the MIC value using the broth micro-dilution technique in cation-adjusted Mueller-Hinton II broth (Becton-Dickinson, 212322) according to EUCAST and CLSI guidelines. Each compound prepared in MHII medium was dispensed into a 96-well round-bottomed microtiter plate to give final assay concentrations from 64 µg/mL down to 0.25 µg/mL (two-fold dilution series in 10 wells, plus two control wells: medium control with no bacteria or compound, and growth control with bacteria added but no compound). Bacteria were prepared from fresh colonies grown on non-selective MHII agar, then suspended in saline to 0.5 McFarland (≅ 1.5 × […]
(§6) 10^8 CFU/mL) with turbidity assessed using a Sensititre Nephelometer (Trek Diagnostics Systems Ltd, UK). 50 µL of this bacterial suspension was transferred to 10 mL of MHII broth to give a final bacterial concentration ≅ 5 × 10^5 CFU/mL (acceptable range 3 – 7 × 10^5 CFU/mL). 50 µL of bacterial suspension was pipetted into each well (except the medium control well, where 50 µL MHII was pipetted). Final volume in each well was 100 µL. Plates were covered and incubated without shaking for 18-20 h at 35 °C ± 2 °C. MIC was read visually, as complete inhibition of growth by the unaided eye, using the medium-only wells as the control. Each compound was assayed at least in duplicate.
(§7) Additionally, the MIC for compound 2 against clinical carbapenem-resistant strains of A. baumannii […]
(§8) determined at the Public Health Agency of Sweden (according to EUCAST recommendations).
(§9) In vitro Cytotoxicity Determination. In vitro cytotoxicity was determined by a fluorometric microculture cytotoxicity assay,7 based on hydrolysis of fluorescein diacetate to fluorescein by cells with intact plasma membranes. In short, HepG2 cells (hepatocellular carcinoma cells, ATCC), in Eagle's Minimum Essential Medium (ATCC) supplemented with 10 % fetal bovine serum, penicillin/streptomycin (100 U/100 µg/mL) and 2 mM L-glutamine, were seeded in 384-well assay plates at a density of 1000 cells/well. The cells were incubated over night at 37°C and compounds in 10 mM DMSO were added, to obtain final concentrations 64 µM – 0.25 µM in two-fold dilutions.
(§10) After incubation for 72 h at 37°C, the cells were pelleted and washed. Fluorescein diacetate was […]

The subject of test [2] is E. coli. The test is described as above. The test is classed as cell-based. The following applies: Escherichia coli. How it is done:
as §1, §2, §3, §4, §5, §6, §7, §8, §9, §10

For a further test, the system named is K. pneumoniae. The description is as above. The test is classed as cell-based. The following applies: Klebsiella pneumoniae. Here is the method: as §1, §2, §3, §4, §5, §6, §7, §8, §9, §10
The test system of another test is P. aeruginosa. Described as above. The following applies: Pseudomonas aeruginosa. Format: cell-based. How it is done:
as §1, §2, §3, §4, §5, §6, §7, §8, §9, §10

The subject of test [3] is A. baumannii. Kind of test: MIC determined at the Public Health Agency of Sweden (EUCAST). The test is classed as cell-based. Conditions: Acinetobacter baumannii. Here is the method:
as §6, §7, §8, §9
(§11) After incubation for 72 h at 37°C, the cells were pelleted and washed. Fluorescein diacetate was added (1 µL, 0.5 mg/mL) and the fluorescence [485 nm(exc)/530 nm(em.)] was measured after 50 min at 37°C. Bortezomib (2 µM) was used as positive control and dose response testing of doxorubicin (top concentration 2 µM) was performed repeatedly to follow assay performance over time. Cytotoxicity was assessed after 72 h with cell survival presented as survival index (SI, %) defined as fluorescence in test wells in percent of control cultures with blank values subtracted.
(§12) Criteria for a successful assay include a signal-to-noise ratio in control cultures >10, CV <30% and a 7 Lindhagen, E., Nygren, P., and Larsson, R. (2008) The fluorometric microculture cytotoxicity assay. Nat.

Test [4] concerns E. coli. The test is described as above. The test is classed as cell-based. Conditions: Escherichia coli. Here is the method: as §6, §7, §8, §9, §11, §12
Test [5] can be described thus: Bacterial membrane permeabilization assay (carboxyfluorescein leakage from liposomes). Format: biochemical. Conditions: large unilamellar liposomes from E. coli phospholipid extract, 45 min, 37 °C.

With `C/C=C1/NC(=O)[C@H](CCN)NC(=O)[C@H](CC(C)C)NC(=O)[C@H](CN)NC(=O)C[C@@H](CCCCCCC)OC(=O)[C@H](CC(=O)O)NC(=O)[C@H](C(C)(C)O)NC(=O)[C@@H](Cc2ccccc2)NC(=O)[C@H](CN)NC(=O)[C@H]([C@@H](C)O)NC1=O` [Compound 2, isopedopeptin B] ([Dap]L[Dab][X1]T[Dap][dF][Val(3-OH)]D; linker N-C via X2), the MIC with A. baumannii [1] (ATCC19606, WT, read-out: MIC A. baumannii ATCC19606) was 8 µg/mL (≈ 7.16 µM); in the test on A. baumannii [1] (Col (colistin-resistant), read-out: MIC A. baumannii EN0287) it was 8 µg/mL (≈ 7.16 µM); with A. baumannii [1] (MDR clinical, read-out: MIC A. baumannii BM4454), 8 µg/mL (≈ 7.16 µM); in the test with A. baumannii [1] (read-out: MIC A. baumannii BM4652, efflux-defective derivative of BM4454), 8 µg/mL (≈ 7.16 µM); in the test with A. baumannii [1] (read-out: MIC colistin-resistant strains of A. baumannii, strains not named), at least 8 µg/mL; with E. coli [2] (ATCC25922, WT, read-out: MIC E. coli ATCC25922) it was 8 µg/mL (≈ 7.16 µM). The MIC in the test on E. coli [2] (ATCC25922, read-out: MIC E. coli CH3130, ΔtolC mutant isogenic to ATCC25922) was determined as 8 µg/mL (≈ 7.16 µM); with E. coli [2] (ESC, CIP, GEN, SXT, read-out: MIC E. coli CH3491), 8 µg/mL (≈ 7.16 µM); in the test with E. coli [2] (read-out: MIC E. coli D22, lpxC mutant, hypersensitive), 4 µg/mL (≈ 3.58 µM); with K. pneumoniae (ATCC13833, WT, read-out: MIC K. pneumoniae ATCC13833), 4 µg/mL (≈ 3.58 µM); in the test on K. pneumoniae (Col, read-out: MIC K. pneumoniae CH9625), 4 µg/mL (≈ 3.58 µM); in the test on K. pneumoniae (Col, read-out: MIC K. pneumoniae CH9626) it was 4 µg/mL (≈ 3.58 µM). The MIC was 8 µg/mL (≈ 7.16 µM) in the test with K. pneumoniae (ESC, CARBA, CIP, GEN, AMK, SXT, TET, clinical multidrug-resistant, read-out: MIC K. pneumoniae CH3498); 8 µg/mL (≈ 7.16 µM) in the test with K. pneumoniae (WT, read-out: MIC K. pneumoniae 1161486); 8 µg/mL (≈ 7.16 µM) with K. pneumoniae (read-out: MIC K. pneumoniae 1161486a, ΔtolC mutant isogenic to 1161486); at least 4 µg/mL in the test with K. pneumoniae (read-out: MIC colistin-resistant strains of K. pneumoniae, strains not named); 32 µg/mL (≈ 28.6 µM) in the test on P. aeruginosa (PAO1, read-out: MIC P. aeruginosa PAO750); 32 µg/mL (≈ 28.6 µM) in the test on P. aeruginosa (PAO1, WT, read-out: MIC P. aeruginosa PAO1). The MIC is 2 µg/mL (≈ 1.79 µM) in the test on A. baumannii [3] (CARBA, Public Health Agency of Sweden, read-out: MIC A. baumannii A219); 2 µg/mL (≈ 1.79 µM) in the test with A. baumannii [3] (CARBA, Public Health Agency of Sweden, read-out: MIC A. baumannii A250); at least 1 µg/mL with A. baumannii [3] (summary in text over strains, strains not named, read-out: MIC carbapenem-resistant A. baumannii); 1 µg/mL (≈ 0.895 µM) in the test with E. coli [4] (ATCC25922, WT, Public Health Agency of Sweden, read-out: MIC E. coli ATCC25922); 2 µg/mL (≈ 1.79 µM) with E. coli [4] (CARBA, Public Health Agency of Sweden, read-out: MIC E. coli EC4129); 1 µg/mL (≈ 0.895 µM) in the test with E. coli [4] (CARBA, Public Health Agency of Sweden, read-out: MIC E. coli EC4163). The MIC in the test on E. coli [4] (summary in text over strains, strains not named, read-out: MIC carbapenem-resistant E. coli) is at least 2 µg/mL.
For the molecule `C/C=C1/NC(=O)[C@H](CCN)NC(=O)[C@H](CC(C)C)NC(=O)[C@H](CN)NC(=O)C[C@@H](CCCCCCCC(C)C)OC(=O)[C@H](CC(=O)O)NC(=O)[C@H](C(C)(C)O)NC(=O)[C@@H](Cc2ccccc2)NC(=O)[C@H](CN)NC(=O)[C@H]([C@@H](C)O)NC1=O` [Compound 6, Isopedopeptin F] ([Dap]L[Dab][X1]T[Dap][dF][Val(3-OH)]D; linker N-C via X5), the pEC50 in test [5] was 5.70.
